Data reported in patent US20210267944A1 (BioXcel Therapeutics, Inc., priority 2018, published 2021).
“And” between values parts separate entries of the source, which are not always exact repeats. Equal entries are not always repeated. Structures can show the parent of a compound that is named as a salt. Where two headings read alike, the source gives them in different places.

How the values were obtained:
[1] = tested on: subjects suffering from opiate withdrawal symptoms;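 note: inpatients in opioid withdrawal given intravenous infusion titrated upward every 30 min (up to 0.1 mcg/kg/hr steps) until COWS total, a clinician-rated 11-item withdrawal scale, fell by half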
[2] = for Plasma concentrations: individual opioid withdrawal patients, IV infusion
[3] = SDAT study
clinical = conditions: human, plasma, iv, Plasma concentrations, individual opioid withdrawal patients, IV infusion
[4] = Day 2 (printed Day −2), 00:00 Hr

Q: Which results are given for `Cc1cccc([C@H](C)c2cnc[nH]2)c1C` [dexmedetomidine hydrochloride]?
A: COW score ([1]; Day 1, Patient OP-17 (Treatment), 00:15 Hr): 11; COW score ([1]; Day 1, Patient OP-17 (Treatment), 00:30 Hr): 9; COW score ([1]; Day 1, Patient OP-17 (Treatment), 00:45 Hr): 8; COW score ([1]; Day 1, Patient OP-17 (Treatment), 01:00 Hr): 4; COW score ([1]; Day 1, Patient OP-17 (Treatment), 30 min. post Infusion): 5; COW score ([1]; Day 2, Patient OP-1 (Treatment), 00:00 Hr): 9; COW score ([1]; Day 2, Patient OP-1 (Treatment), 00:15 Hr): 8; COW score ([1]; Day 2, Patient OP-1 (Treatment), 00:30 Hr): 2; COW score ([1]; Day 2, Patient OP-1 (Treatment), last cell, 30 min. post Infusion): 0; COW score ([1]; Day 2, Patient OP-2 (Treatment), 00:00 Hr): 14; COW score ([1]; Day 2, Patient OP-2 (Treatment), 00:15 Hr): 11; COW score ([1]; Day 2, Patient OP-2 (Treatment), 00:30 Hr): 12; COW score ([1]; Day 2, Patient OP-2 (Treatment), 00:45 Hr): 10; COW score ([1]; Day 2, Patient OP-2 (Treatment), 01:00 Hr): 9; COW score ([1]; Day 2, Patient OP-2 (Treatment), 01:15 Hr): 7; COW score ([1]; Day 2, Patient OP-2 (Treatment), last cell, 30 min. post Infusion): 4; COW score ([1]; Day 2, Patient OP-3 (Treatment), 00:00 Hr): 10; COW score ([1]; Day 2, Patient OP-3 (Treatment), 00:15 Hr): 8; COW score ([1]; Day 2, Patient OP-3 (Treatment), 00:30 Hr): 6; COW score ([1]; Day 2, Patient OP-3 (Treatment), 00:45 Hr): 4; COW score ([1]; Day 2, Patient OP-3 (Treatment), last cell, 30 min. post Infusion): 4; COW score ([1]; Day 2, Patient OP-9 (Treatment), 00:30 Hr): 14; COW score ([1]; Day 2, Patient OP-9 (Treatment), 00:45 Hr): 14; COW score ([1]; Day 2, Patient OP-9 (Treatment), 01:00 Hr): 14; COW score ([1]; Day 2, Patient OP-9 (Treatment), 01:15 Hr): 12; COW score ([1]; Day 2, Patient OP-9 (Treatment), 01:30 Hr): 12; COW score ([1]; Day 2, Patient OP-9 (Treatment), 01:45 Hr): 12; COW score ([1]; Day 2, Patient OP-9 (Treatment), 02:00 Hr): 9; COW score ([1]; Day 2, Patient OP-9 (Treatment), last cell, 30 min. post Infusion): 9; COW score ([1]; Day 2, Patient OP-17 (Treatment), 00:00 Hr): 14; COW score ([1]; Day 2, Patient OP-17 (Treatment), 00:15 Hr): 14; COW score ([1]; Day 2, Patient OP-17 (Treatment), 00:30 Hr): 12; COW score ([1]; Day 2, Patient OP-17 (Treatment), 00:45 Hr): 11; COW score ([1]; Day 2, Patient OP-17 (Treatment), 01:00 Hr): 5; COW score ([1]; Day 2, Patient OP-17 (Treatment), last cell, 30 min. post Infusion): 5; Efficacy (Primary/secondary end points): subjects with COWS greater than or equal to 50% reduction ([1]; Opioid withdrawal Study): 11/11 COWS; Range of efficacious dose of IV dexmedetomidine hydrochloride ([1]; Opioid withdrawal Study, continuous infusion): 0.2 to 0.7 µg/kg/h; effect on physiological symptoms of opioid withdrawal (COWS) ([1]; opioid withdrawal): effectively mitigated the physiological symptoms of opioid withdrawal; subjects who achieved 50% reduction in COW score ([1]; opioid withdrawal, Day 1): 10 out of 10; optimal dose at 50% of the COW score achieved, Max ([1]; opioid withdrawal, Day 1, n=10): 0.4 µg/kg/h; optimal dose at 50% of the COW score achieved, Mean ± Sd (mean infusion rate) ([1]; opioid withdrawal, Day 1, n=10): 0.29 µg/kg/h; optimal dose at 50% of the COW score achieved, Median ([1]; opioid withdrawal, Day 1, n=10): 0.3 µg/kg/h; optimal dose at 50% of the COW score achieved, Min ([1]; opioid withdrawal, Day 1, n=10): 0.2 µg/kg/h; optimal dose at 50% of the COW score achieved, Mean ± Sd (mean infusion rate) ([1]; opioid withdrawal, Day 1, n=10, listed as Test): 0.29 ± 0.08 µg/kg/h; patients in the treatment arm who achieved 50% reduction in COW score ([1]; opioid withdrawal, Day 2): 5 out of 5; optimal dose at 50% of the COW score achieved, Max ([1]; opioid withdrawal, Day 2, n=5): 0.7 µg/kg/h; optimal dose at 50% of the COW score achieved, Mean ± Sd (mean infusion rate) ([1]; opioid withdrawal, Day 2, n=5): about 0.44 mcg/kg/hr; optimal dose at 50% of the COW score achieved, Median ([1]; opioid withdrawal, Day 2, n=5): 0.4 µg/kg/h; optimal dose at 50% of the COW score achieved, Min ([1]; opioid withdrawal, Day 2, n=5): 0.2 µg/kg/h; optimal dose at 50% of the COW score achieved, Mean ± Sd (mean infusion rate) ([1]; opioid withdrawal, Day 2, n=5, listed as Test): 0.44 ± 0.16 µg/kg/h; Plasma concentrations ([2]; Day 1 (printed Day −1), 00:00 Hr): BLQ; Plasma concentrations [2, 4]: BLQ; Plasma concentrations ([2]; Day 2 (printed Day −2), 01:00 Hr): 54.81 picograms/ml and 97.92 picograms/ml and 119.71 picograms/ml; Plasma concentration achieved at efficacious doses ([2]; Opioid withdrawal Study): 0.011 to 0.406 ng/mL; adverse events [3]: No adverse event was reported; concentration at […] (clinical; Day 1 (printed Day −1), 01:15 Hr): 0.0753 ng/mL; concentration at […] (clinical; Day 1 (printed Day −1), 01:30 Hr): 0.112 ng/mL; concentration at 0 h (clinical; [4]): 0.00821 ng/mL; concentration at […] (clinical; Day 2 (printed Day −2), 01:15 Hr): 0.14 ng/mL; concentration at […] (clinical; Day 2 (printed Day −2), 01:30 Hr): 0.177 ng/mL; concentration at […] (clinical; Day 2 (printed Day −2), 01:45 Hr): 0.288 ng/mL; concentration at 2 h (clinical; Day 2 (printed Day −2), 02:00 Hr): 0.404 ng/mL
